Among the data in ChEMBL document CHEMBL1201862, “PubChem BioAssay data set” (2004) are AC50 and IC50 values, retold here.

Test [1] is described as follows: CTGF mRNA reduction under YAP1 overexpression, dose response, mechanism study for YAP1 pathway inhibitor project, DLD1 cells, RT-qPCR, cherry-pick (AID 1053127). It is filed as functional, cell-based. To be noted: DLD-1. (Real-time PCR tracks product formation cycle by cycle.)
Test [2] in a line: YAP1 pathway inhibition via CTGF transcript levels, dose response, cell-based, DLD1 colon cancer, RT-qPCR, cherry-pick (AID 1053122). Type of test: functional. To be noted: Cancer cell lines.
Test [3] concerns the target Protein disulfide-isomerase (Homo sapiens, UniProt P07237). Briefly: PDI inhibitors, insulin turbidity readout, confirmation, biochemical, dry powder samples, set 2 (AID 652146).
For test [4], the system named is CHO. Nature of the test: cytotoxicity in TLR9-MyD88 CHO cells, dose response, cytotoxicity control for TLR9-MyD88 binding inhibitor project, cell-based, luminescence (AID 588339).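 Further: CHO cells stably coexpressing TLR9 and MyD88 fusions from primary screen; compound exposure lasted 48 hours before viability readout.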 It is filed as functional, hamster. To be noted: Cricetulus griseus.
Test [5] deals with Beta Lactamase (Pseudomonas aeruginosa, UniProt Q932Y6). Nature of the test: beta-lactamase reporter inhibitor potency, dose response, artefact control for TLR9-MyD88 binding inhibitor project, BLA reporter cells, FRET fluorescence (AID 588341).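 Further: cell based assay in CHO-K1 cells stably expressing beta-lactamase.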 It is filed as cell-based.
The target in test [6] is T1, Rac GTPase-activating protein 1 (Homo sapiens, UniProt Q9H0H5).
T1 sequence (Q9H0H5 whole entry): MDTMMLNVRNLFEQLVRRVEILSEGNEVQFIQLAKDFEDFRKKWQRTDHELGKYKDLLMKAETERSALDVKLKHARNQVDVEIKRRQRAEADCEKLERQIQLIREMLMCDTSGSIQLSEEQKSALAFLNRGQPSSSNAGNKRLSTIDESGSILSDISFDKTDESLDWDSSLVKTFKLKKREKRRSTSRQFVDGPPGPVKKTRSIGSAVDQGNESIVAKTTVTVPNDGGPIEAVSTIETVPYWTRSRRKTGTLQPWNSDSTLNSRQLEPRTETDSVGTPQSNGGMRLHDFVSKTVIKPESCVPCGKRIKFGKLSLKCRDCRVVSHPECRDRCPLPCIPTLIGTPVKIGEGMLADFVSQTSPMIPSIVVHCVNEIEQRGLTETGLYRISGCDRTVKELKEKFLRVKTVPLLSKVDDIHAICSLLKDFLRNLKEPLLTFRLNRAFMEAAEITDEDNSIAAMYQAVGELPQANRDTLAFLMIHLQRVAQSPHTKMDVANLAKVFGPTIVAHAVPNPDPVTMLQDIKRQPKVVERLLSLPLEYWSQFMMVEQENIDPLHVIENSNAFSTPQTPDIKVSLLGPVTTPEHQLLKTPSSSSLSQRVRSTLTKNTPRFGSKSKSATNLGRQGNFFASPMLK
Nature of the test: MgcRacGAP GTPase-activating activity inhibitors, confirmation, biochemical, ADP Hunter fluorescence, primary and confirmatory (AID 624330). Type of test: functional.

Test [7] has as its target NS3 (Hepatitis C virus, UniProt A3EZJ3). Briefly: HCV NS3 helicase inhibitor potency, dose response, biochemical, fluorescence polarization, ChemBridge library (AID 743264). A general note: In fluorescence polarisation assays a small probe gives low polarisation when free and higher when bound to something large.
Test [8] in a line: Late stage assay provider results from the probe development effort to identify inhibitors of the Plasmodium falciparum M18 Aspartyl Aminopeptidase (M18AAP): radiolabel-based cell-based dose response assay to identify compounds that inhibit P. falciparum growth in RBCs, Set 2.. Type of test: functional.
Test [9] in a line: HIF luciferase reporter inhibitors, dose response, ARNT-TACC3 inhibitor project, cell-based, dry powder samples, luminescence, 2158-07 (AID 720561). Type of test: functional. In general terms: In a reporter assay the amount or activity of a reporter protein is the signal.
Test [10] relates to HEK293. Briefly: HEK293T cell cytotoxicity, dose response, cytotoxicity control, ATP luminescence, cherry-pick samples (AID 687005).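 Further: cells exposed to compound for 48 hours.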 The conditions noted are these: Homo sapiens. Type of test: functional, cell-based.
Test [11] in a line: HEK293 Cytotoxicity Assay Measured in Cell-Based System Using Plate Reader - 7071-01_Inhibitor_Dose_CherryPick_Activity_Set2. It is filed as functional.
The nature of test [12]: P. falciparum 3D7-ScDHODH growth inhibitors, dose response, SYBR Green, dry powder samples (AID 1159570).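 Further: parasite growth measured after 72 hours of compound exposure.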 It is filed as functional, cell-based.
Test [13] in a line: P. falciparum Dd2 growth inhibitors, dose response, SYBR Green, cherry-picked samples (AID 1159567). Type of test: functional, cell-based.
A short description of test [14]: P. falciparum Dd2 growth inhibitors, dose response, SYBR Green, dry powder samples (AID 1159566).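 Further: potency for growth inhibition with lower SYBR green DNA signal.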 Type of test: functional, cell-based.
Test [15] is described as follows: P. falciparum ATP4 D1247Y mutant growth inhibitors, dose response, NITD609-resistant line, SYBR Green, dry powder (AID 1159571).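 Further: parasites synchronized at ring stage by sorbitol before testing.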 It is filed as functional, cell-based.
The target of test [16] is C-X-C chemokine receptor type 4 (Homo sapiens, UniProt P61073). Briefly: SAR analysis of small molecule antagonists of the CXCR6 receptor using a CXCR4 receptor luminescent beta-arrestin counterscreen. Type of test: functional.
Test [17] deals with C-C chemokine receptor type 6 (Homo sapiens, UniProt P51684). Nature of the test: SAR analysis of small molecule antagonists of the CXCR6 receptor using a CCR6 receptor luminescent beta-arrestin counterscreen. It is filed as functional.

Activity calls are given as the source filed them. Bounds are passed on as bounds.

Sequence of C-C chemokine receptor type 6 (P51684 whole entry): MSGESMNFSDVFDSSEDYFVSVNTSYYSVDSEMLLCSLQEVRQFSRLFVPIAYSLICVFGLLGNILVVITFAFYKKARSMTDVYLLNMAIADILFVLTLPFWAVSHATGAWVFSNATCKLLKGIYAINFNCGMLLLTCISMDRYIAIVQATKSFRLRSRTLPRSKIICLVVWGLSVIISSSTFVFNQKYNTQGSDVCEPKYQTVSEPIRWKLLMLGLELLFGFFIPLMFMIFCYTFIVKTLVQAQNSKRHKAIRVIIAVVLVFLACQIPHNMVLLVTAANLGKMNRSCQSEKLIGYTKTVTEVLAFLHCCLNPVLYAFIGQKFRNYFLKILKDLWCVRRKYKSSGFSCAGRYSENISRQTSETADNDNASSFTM
Sequence of Protein disulfide-isomerase (P07237 whole entry, the tested form may be a part): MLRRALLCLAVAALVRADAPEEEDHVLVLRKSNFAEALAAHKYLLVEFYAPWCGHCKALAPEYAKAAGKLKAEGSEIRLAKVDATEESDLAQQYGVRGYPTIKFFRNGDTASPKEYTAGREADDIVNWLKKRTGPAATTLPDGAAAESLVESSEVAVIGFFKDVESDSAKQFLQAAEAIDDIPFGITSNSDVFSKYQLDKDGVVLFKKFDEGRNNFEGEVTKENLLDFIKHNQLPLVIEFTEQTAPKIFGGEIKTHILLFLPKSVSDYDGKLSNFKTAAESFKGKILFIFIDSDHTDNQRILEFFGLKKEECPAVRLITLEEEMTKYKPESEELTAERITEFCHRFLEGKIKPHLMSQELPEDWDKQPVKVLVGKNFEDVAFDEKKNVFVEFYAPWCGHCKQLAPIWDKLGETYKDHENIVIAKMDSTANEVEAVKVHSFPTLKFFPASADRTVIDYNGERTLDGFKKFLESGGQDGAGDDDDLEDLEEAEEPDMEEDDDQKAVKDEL
Sequence of Beta Lactamase (Q932Y6 whole entry): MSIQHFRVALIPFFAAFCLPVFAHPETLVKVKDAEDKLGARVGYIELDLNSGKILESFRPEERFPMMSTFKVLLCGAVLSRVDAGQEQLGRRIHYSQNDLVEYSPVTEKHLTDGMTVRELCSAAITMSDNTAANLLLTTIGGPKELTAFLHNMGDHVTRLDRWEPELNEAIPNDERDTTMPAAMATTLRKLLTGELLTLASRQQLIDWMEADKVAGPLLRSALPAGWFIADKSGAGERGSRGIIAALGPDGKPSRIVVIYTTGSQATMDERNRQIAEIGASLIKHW
Sequence of C-X-C chemokine receptor type 4 (P61073 whole entry): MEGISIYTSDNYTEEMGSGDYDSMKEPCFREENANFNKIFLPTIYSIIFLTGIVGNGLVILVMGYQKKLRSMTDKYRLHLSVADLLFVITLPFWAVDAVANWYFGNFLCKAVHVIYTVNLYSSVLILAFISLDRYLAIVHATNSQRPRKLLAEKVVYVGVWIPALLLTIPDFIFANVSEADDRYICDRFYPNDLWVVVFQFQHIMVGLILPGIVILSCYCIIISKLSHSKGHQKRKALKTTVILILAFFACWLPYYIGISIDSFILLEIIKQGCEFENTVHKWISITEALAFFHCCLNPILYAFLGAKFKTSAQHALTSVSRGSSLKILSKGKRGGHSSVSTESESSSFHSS
Sequence of NS3 (A3EZJ3 whole entry): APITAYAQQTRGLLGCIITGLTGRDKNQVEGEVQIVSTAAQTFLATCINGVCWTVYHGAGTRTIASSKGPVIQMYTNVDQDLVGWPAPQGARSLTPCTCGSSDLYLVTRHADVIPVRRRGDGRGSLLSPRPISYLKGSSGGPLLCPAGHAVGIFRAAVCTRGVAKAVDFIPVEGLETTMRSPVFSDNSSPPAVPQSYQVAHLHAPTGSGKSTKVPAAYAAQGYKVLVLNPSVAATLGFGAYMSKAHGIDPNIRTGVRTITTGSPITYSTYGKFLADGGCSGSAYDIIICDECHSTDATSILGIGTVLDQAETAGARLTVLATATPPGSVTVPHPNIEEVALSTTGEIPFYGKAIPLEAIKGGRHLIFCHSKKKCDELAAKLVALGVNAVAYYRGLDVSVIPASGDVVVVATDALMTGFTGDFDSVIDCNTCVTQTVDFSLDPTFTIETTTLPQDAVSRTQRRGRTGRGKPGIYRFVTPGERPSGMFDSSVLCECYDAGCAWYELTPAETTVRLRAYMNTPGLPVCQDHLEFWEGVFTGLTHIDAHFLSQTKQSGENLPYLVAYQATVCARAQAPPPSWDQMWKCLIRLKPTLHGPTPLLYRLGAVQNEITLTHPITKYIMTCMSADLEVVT

Regarding `CO[C@@H](CN(C)S(=O)(=O)c1ccc(C)cc1)[C@H](C)CN([C@H](C)CO)S(=O)(=O)c1cccc(Cl)c1`, the AC50 in [1] is 4.83 µM (active); in test [2], 4.99 µM (active).

Take `CCOC(=O)C1(CCOc2ccccc2)CCN(C(=O)c2ccc(O)c(Cl)c2)CC1`: in [3], the AC50 is 3 µM (active).

Take `O=C1C=CC(=O)N1c1ccccc1N1C(=O)C=CC1=O`: the IC50 in [4] is 2.55 µM (active); in [5], 13.6 µM (inactive); in [6], 62.2 µM (active); in test [7], 34.9 µM (inactive).

As for `Oc1ccc(CCNc2ccnc3ccccc23)cc1O`, the IC50 in test [8] is 3.9 µM (active).

Take `O=C(Nc1nnc(C2=COCCO2)o1)c1ccc(S(=O)(=O)N2CCCCC2)cc1`: the AC50 in test [9] was > 100 µM (inactive).

`COc1ccc(C#Cc2ccc3c(c2)O[C@H](CN(C)C(=O)Nc2cccc(OC)c2)[C@H](C)CN([C@@H](C)CO)S3(=O)=O)cc1`: the AC50 in test [10] is 26.3 µM (active); in test [11] it was 26.3 µM (active); in test [12], 2.21 µM (active); in test [13], 1.46 µM (active); in [14], 1.06 µM (active); in test [15], 1.69 µM (active).

With `COc1cc(C(=O)NC2CC3CCCC(C2)N3CC(=O)Nc2ccc(F)cc2)cc(OC)c1OC` (configuration not stated), the IC50 in test [16] and in [17] was > 79 µM (inactive) each time.

In general, AC50 refers to the concentration giving half of the maximal activity seen. As usually defined, the IC50 is the concentration that inhibits the measured activity by half.
